From patent US20240140895A1, “NOVEL AROMATIC MOLECULES” (XENIOPRO GmbH, priority 2018, published 2024)

Key:
Assay type in all cases: cell-based
[1] = test system: Notch signaling (human Notch1 receptor, hNotch1ΔE); assay: Notch reporter assay (dual luciferase, HeLa cells transfected with hNotch1ΔE); details: 10 μM
Text: The activation level of Notch signaling can be quantified in vitro reliably by measuring the expression levels of Notch specific target genes. This can be accomplished by the quantification of corresponding mRNA or protein of a particular Notch target gene. Alternatively, cells can be genetically modified to carry a luciferase gene as an artificial Notch target gene, which is expressed in dependence of Notch activity. In this setting, Notch signaling levels can be quantified by measuring the luciferase-derived bioluminescence values.
An according Notch-reporter assay, i.e. a luciferase-based luminescence readout, was used here to quantify the ability of the claimed compounds to augment Notch signaling in a cellular system. […] After 24 hours of transfection, the transfected cells were carefully detached from the dish using 0.5 mM EDTA in PBS and seeded into 96-well plates suitable for luminescence readouts (CORNING, #3610) at 10,000 cells per well. […] Directly after the lysis, first the Firefly and then the Renilla luciferase values were measured consecutively from the same well with a luminescence reader immediately after applying 15 μL per well each of the corresponding enzyme substrates needed to create the luminescence signals (Promega, Dual-Luciferase® Reporter Assay System, #E1910). […]

[2] = test system: LOU-NH91 cells (human lung squamous cell carcinoma cells); assay: Proliferation assay (alamarBlue) with LOU-NH91 cells; details: 20 μM
Text: (§1) The antiproliferative activities of compounds falling under formula (Ia), (Tb) and (Ic), respectively, were investigated on cells or cell lines originating from a disorder of the haematopoietic system, including the myeloid cell compartment and the lymphoid cell compartment (T-cells and B-cells), the neuroendocrine system, the cervix, the breast, the ovaries, the lung, the gastrointestinal tract, and the mucosal epithelium, as well as from the skin epithelium and from the muscle. To this end, HL-60 cells, NB-4 cells, HH cells, RPMI-8402 cells, TANOUE cells, TT cells, HeLa cells, MDA-MB-231 cells, FU-OV-1 cells, LOU-NH91 cells, 23132/87 cells, CAL-27 cells, BHY cells, SCC-25 cells, A-431 cells, human primary epidermal keratinocytes (HPEK), and C2C12 cells were seeded into 96-well plates suitable for fluorescence assays (CORNING #3598) at following initial cell numbers: 1000 cells per well for HL-60; 1000 cells per well for NB-4; 5000 cells per well for HH; 5000 cells per well for RPMI-8402; 1500 cells per well for TANOUE; 9000 cells per well for TT; 2000 cells per well for HeLa; 3000 cells per well for MDA-MB-231; 3000 cells per well for FU-OV-1; 4000 cells per well for LOU-NH91; 2000 cells per well for 23132/87; 2000 cells per well for CAL-27; 1500 cells per well for BHY; 1500 cells per well for SCC-25; 700 cells per well for A-431; 1000 cells per well for HPEK; 500 cells per well for C2-C12. […] The readout was taken with a multi-well plate-reader in the fluorescence mode with applying a filter for excitation at 560 nm (band width 10 nm) and for emission at 590 nm (band width 10 nm). […]
(§2) The assays were performed in duplicate or more replicates of independent single experiments each containing a six-fold replicate for every condition. For every individual plate, the measured fluorescence intensity values of the conditions with compound treatment were normalized against the corresponding equally weighted arithmetic mean of the fluorescence intensity values of the six DMSO treated control wells in order to obtain the relative values to a baseline level of 1.0. […]

[3] = test system: 23132/87 cells (human gastric adenocarcinoma cells); assay: Proliferation assay (alamarBlue) with 23132/87 cells; details: read-out: Activity Range: weighted arithmetic mean (AVEw) of normalized fluorescence intensity relative to DMSO basis level 1.0
Text: (§3) The antiproliferative activities of compounds falling under formula (Ia), (Tb) and (Ic), respectively, were investigated on cells or cell lines originating from a disorder of the haematopoietic system, including the myeloid cell compartment and the lymphoid cell compartment (T-cells and B-cells), the neuroendocrine system, the cervix, the breast, the ovaries, the lung, the gastrointestinal tract, and the mucosal epithelium, as well as from the skin epithelium and from the muscle. To this end, HL-60 cells, NB-4 cells, HH cells, RPMI-8402 cells, TANOUE cells, TT cells, HeLa cells, MDA-MB-231 cells, FU-OV-1 cells, LOU-NH91 cells, 23132/87 cells, CAL-27 cells, BHY cells, SCC-25 cells, A-431 cells, human primary epidermal keratinocytes (HPEK), and C2C12 cells were seeded into 96-well plates suitable for fluorescence assays (CORNING #3598) at following initial cell numbers: 1000 cells per well for HL-60; 1000 cells per well for NB-4; 5000 cells per well for HH; 5000 cells per well for RPMI-8402; 1500 cells per well for TANOUE; 9000 cells per well for TT; 2000 cells per well for HeLa; 3000 cells per well for MDA-MB-231; 3000 cells per well for FU-OV-1; 4000 cells per well for LOU-NH91; 2000 cells per well for 23132/87; 2000 cells per well for CAL-27; 1500 cells per well for BHY; 1500 cells per well for SCC-25; 700 cells per well for A-431; 1000 cells per well for HPEK; 500 cells per well for C2-C12. The cells were treated with compounds at indicated final concentrations (diluted from the 1000× stock-solutions in DMSO to a final DMSO concentration of 0.1% v/v in H2O (Water For Injection, WFI, Fisherscientific #10378939)) or with the empty carrier DMSO at 0.1% v/v as control for 5 days. At day 5 after starting the treatments the cells were subjected to the alamarBlue® Proliferation Assay (Bio-Rad Serotec GmbH, BUF012B) according to the protocol of the manufacturer. The readout was taken with a multi-well plate-reader in the fluorescence mode with applying a filter for excitation at 560 nm (band width 10 nm) and for emission at 590 nm (band width 10 nm). Control treatments for growth inhibition with commercial compounds such as Methotrexate (MTREX) and Resveratrol (RES) were included on every plate. Some of the test compounds of the present invention were obtained and applied as their salts. According cases are indicated in the column “Specification” in Table 30 to Table 62 and by their sum formula in Table 63.
(§4) The assays were performed in duplicate or more replicates of independent single experiments each containing a six-fold replicate for every condition. For every individual plate, the measured fluorescence intensity values of the conditions with compound treatment were normalized against the corresponding equally weighted arithmetic mean of the fluorescence intensity values of the six DMSO treated control wells in order to obtain the relative values to a baseline level of 1.0.
(§5) Two independent outlier analyses were performed according to the methods by Peirce and Chauvenet (Ross, Journal of Engineering Technology 2003, 1-12). Outliers confirmed by at least one of the methods were excluded from the calculations but not more than one value out of six per compound within a single experiment. The weighted arithmetic mean (here abbreviated as AVEw) for each compound was calculated from the normalized values over all independent replicates of the single experiments comprising the six replicates each. The corresponding standard deviation for the weighted arithmetic mean was calculated according to the method described by Bronstein et al. (Bronstein, Semendjajew, Musiol, Muhlig, Taschenbuch der Mathematik, 5th edition 2001 (German), publisher: Verlag Harri Deutsch, Frankfurt am Main and Thun) and was combined with the Gauβ′ error propagation associated with the performed calculation for the normalization. The resulting standard deviation is herein referred to as “combined standard deviation”. […]

[4] = test system: C2C12 cells (murine myoblast cells); assay: Proliferation assay (alamarBlue) with C2C12 cells; details: Mus musculus, compound at 20 μM, read-out: Activity Range: weighted arithmetic mean (AVEw) of normalized fluorescence intensity, relative to DMSO basis level 1.0
Text: as §3, §4, §5

[5] = test system: HeLa cells (human cervical adenocarcinoma cells); assay: Proliferation assay (alamarBlue) with HeLa cells; details: compound at 20 μM
Text: as §1, §2

[6] = test system: TANOUE cells (human B cell leukemia cells); assay: Proliferation assay (alamarBlue) with TANOUE cells; details: Homo sapiens, B-cell, read-out: Activity Range: weighted arithmetic mean (AVEw) of normalized fluorescence intensity relative to DMSO basis level 1.0
Text: as §3, §4, §5

[7] = test system: BHY cells (human oral squamous cell carcinoma cells); assay: Proliferation assay (alamarBlue) with BHY cells; details: read-out: Activity Range: weighted arithmetic mean (AVEw) of normalized fluorescence intensity relative to DMSO basis level 1.0
Text: as §3, §4, §5

[8] = test system: HL-60 cells (human acute myeloid leukemia cells); assay: Proliferation assay (alamarBlue) with HL-60 cells
Text: as §3, §4, §5

[9] = test system: MDA-MB-231 cells (human breast carcinoma cells); assay: Proliferation assay (alamarBlue) with MDA-MB-231 cells; details: Homo sapiens, read-out: Activity Range: weighted arithmetic mean (AVEw) of normalized fluorescence intensity relative to DMSO basis level 1.0
Text: as §3, §4, §5

[10] = test system: SCC-25 cells (human tongue squamous cell carcinoma cells); assay: Proliferation assay (alamarBlue) with SCC-25 cells; details: Homo sapiens, read-out: Activity Range: weighted arithmetic mean (AVEw) of normalized fluorescence intensity relative to DMSO basis level 1.0
Text: as §3, §4, §5

[11] = test system: NB-4 cells (human acute promyelocytic leukemia cells); assay: Proliferation assay (alamarBlue) with NB-4 cells
Text: as §3, §4, §5

[12] = test system: CAL-27 cells (human tongue squamous cell carcinoma cells); assay: Proliferation assay (alamarBlue) with CAL-27 cells; details: read-out: Activity Range: weighted arithmetic mean (AVEw) of normalized fluorescence intensity relative to DMSO basis level 1.0
Text: as §3, §4, §5

[13] = test system: A-431 cells (human epidermoid squamous cell carcinoma cells); assay: Proliferation assay (alamarBlue) with A-431 cells
Text: as §3, §4, §5

[14] = test system: TT cells (human medullary thyroid carcinoma cells); assay: Proliferation assay (alamarBlue) with TT cells; details: compound at 20 μM
Text: as §1, §2

[15] = test system: RPMI-8402 cells (human T cell acute lymphoblastic leukemia cells); assay: Proliferation assay (alamarBlue) with RPMI-8402 cells; details: Homo sapiens, read-out: Activity Range: weighted arithmetic mean (AVEw) of normalized fluorescence intensity relative to DMSO basis level 1.0
Text: as §3, §4, §5

[16] = test system: FU-OV-1 cells (human ovarian carcinoma cells); assay: Proliferation assay (alamarBlue) with FU-OV-1 cells; details: 20 μM
Text: as §1, §2

[17] = test system: HH cells (human cutaneous T-cell lymphoma cells); assay: Proliferation assay (alamarBlue) with HH cells; details: Table 34, compound at 20 μM, read-out: Activity Range (AVEw, weighted arithmetic mean of normalized fluorescence intensity, DMSO = 1.0)
Text: as §3, §4, §5

Row | SMILES | Activity Range: weighted arithmetic mean (AVEw) of double-normalized Notch-reporter luminescence, relative to DMSO basis level 1.0 [1] | Activity Range: weighted arithmetic mean (AVEw) of normalized fluorescence intensity relative to DMSO basis level 1.0 [2] | activity at 20 µM [3] [%] | activity at 20 µM [4] [%] | Activity Range: weighted arithmetic mean (AVEw) of normalized fluorescence intensity relative to DMSO basis level 1.0 [5] | activity at 20 µM [6] [%] | activity at 20 µM [7] [%] | activity at 20 µM ([8]; Homo sapiens, Table 30, compound at 20 μM, read-out: Activity Range (AVEw, weighted arithmetic mean of normalized fluorescence intensity, DMSO = 1.0)) [%] | Activity Range (AVEw, weighted arithmetic mean of normalized fluorescence intensity, DMSO = 1.0) ([8]; Table 31, compound at 20 μM) | activity at 20 µM [9] [%] | activity at 20 µM [10] [%] | activity at 20 µM ([11]; Homo sapiens, Table 32, compound at 20 μM, read-out: Activity Range (AVEw, weighted arithmetic mean of normalized fluorescence intensity, DMSO = 1.0)) [%] | Activity Range (AVEw, weighted arithmetic mean of normalized fluorescence intensity, DMSO = 1.0) ([11]; Table 33, compound at 20 μM) | activity at 20 µM [12] [%] | activity at 20 µM ([13]; Homo sapiens, 20 μM, read-out: Activity Range: weighted arithmetic mean (AVEw) of normalized fluorescence intensity relative to DMSO basis level 1.0) [%] | Activity Range: weighted arithmetic mean (AVEw) of normalized fluorescence intensity relative to DMSO basis level 1.0 ([13]; compound at 20 μM) | Activity Range: weighted arithmetic mean (AVEw) of normalized fluorescence intensity relative to DMSO basis level 1.0 [14] | activity at 20 µM [15] [%] | Activity Range: weighted arithmetic mean (AVEw) of normalized fluorescence intensity relative to DMSO basis level 1.0 [16] | activity at 20 µM [17] [%]
1 | C[C@H](NC(=O)Cc1cc(F)cc(F)c1)C(=O)N[C@H](C(=O)OC(C)(C)C)c1ccccc1 [DAPT] | 0.1 ± 0.0 |  |  |  |  |  |  |  |  |  |  |  |  |  |  |  |  |  |  | 
2 | CN(Cc1cnc2nc(N)nc(N)c2n1)c1ccc(C(=O)N[C@@H](CCC(=O)O)C(=O)O)cc1 [MTREX, Methotrexate, reference compound] |  | 0.5 ± 0.1 | 30 | 10 | 0.4 ± 0.0 | 10 | 30 | 10 ± 10 | 0.1 ± 0.1 | 60 | 50 ± 10 | 10 | 0.1 ± 0.0 | 10 | 20 ± 10 | 0.2 ± 0.1 | 1.0 ± 0.0 | 10 | 1 ± 0.0 | 40 ± 10
3 | O=Cc1ccc(Oc2ccc(C3CCCCC3)cc2)cc1 [XPA-0020] | 2.0 ≤ AVEw |  |  |  |  |  |  |  |  |  |  |  |  |  |  |  |  |  |  | 
